# Structures can show the parent of a compound that is named as a salt.
# Experiments:
# serotonin transporter = molecular target: T1, serotonin transporter (Rattus norvegicus, UniProt P31652); assay: Displacement of 3H-paroxetine from male rat frontal cortical membranes (serotonin transporter affinity); format: binding; conditions: 3H-paroxetine displacement, read-out: 5-HT Transporter Affinity Ki
# T1 construct: displace ^3H-paroxetine from male rat frontal cortical membranes; from tissue; host or cells: male rat frontal cortex membranes
# T1 sequence (P31652 whole entry): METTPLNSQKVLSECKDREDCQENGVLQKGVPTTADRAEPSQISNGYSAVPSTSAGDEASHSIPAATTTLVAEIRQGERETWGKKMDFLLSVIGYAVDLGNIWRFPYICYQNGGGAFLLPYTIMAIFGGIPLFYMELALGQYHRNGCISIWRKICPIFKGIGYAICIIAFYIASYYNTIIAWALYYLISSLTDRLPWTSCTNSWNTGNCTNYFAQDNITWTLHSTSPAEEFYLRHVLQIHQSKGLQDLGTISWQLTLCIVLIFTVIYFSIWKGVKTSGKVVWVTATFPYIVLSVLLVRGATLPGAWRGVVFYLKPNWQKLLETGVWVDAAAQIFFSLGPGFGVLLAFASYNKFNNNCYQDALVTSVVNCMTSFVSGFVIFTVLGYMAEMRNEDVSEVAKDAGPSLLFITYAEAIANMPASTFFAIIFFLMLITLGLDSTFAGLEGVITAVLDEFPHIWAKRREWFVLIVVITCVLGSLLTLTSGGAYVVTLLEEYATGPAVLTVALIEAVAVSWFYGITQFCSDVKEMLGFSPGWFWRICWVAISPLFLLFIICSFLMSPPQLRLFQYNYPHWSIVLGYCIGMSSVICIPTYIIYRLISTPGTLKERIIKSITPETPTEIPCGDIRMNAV
# From the text: Affinity of Compounds of the Invention for the Serotonin Transporter
Compound,melting point,Ki (serotonin transporter)
"CNCCCCOc1ccc2c(c1)NC(=O)CO2 [Example 10, 6-[4-(Methylamino)butoxy]-2H-1,4-benzoxazin-3(4H)-one hydrochloride salt]",,58.5 nM
"Cc1ccc2c3c(ccc2n1)OC[C@H](CN1CCC(CCc2ccc4c(c2)N(C)C(=O)CO4)CC1)O3 (as salt: hydrochloride) [Example 13, 4-Methyl-6-[2-(1-{[(2S)-8-methyl-2,3-dihydro[1,4]dioxino[2,3-f]quinolin-2-yl]methyl}piperidin-4-yl)ethyl]-2H-1,4-benzoxazin-3(4H)-one dihydrochloride salt]",185 to 189 °C,
"Cc1ccc2c3c(ccc2n1)OC[C@H](CNCCCCOc1ccc2c(c1)NC(=O)CO2)O3 (as salt: hydrochloride) [Example 6, 6-[4-({[(2S)-8-Methyl-2,3-dihydro[1,4]dioxino[2,3-f]quinolin-2-yl]methyl}amino)butoxy]-2H-1,4-benzoxazin-3(4H)-one dihydrochloride salt]",143 °C (dec.),
"Cc1ccc2c3c(ccc2n1)OC[C@H](CN1CC[C@H](Oc2ccc4c(c2)NC(=O)CO4)C1)O3 (as salt: hydrochloride) [Example 8, 6-{[(3S)-1-{[(2S)-8-Methyl-2,3-dihydro[1,4]dioxino[2,3-f]quinolin-2-yl]methyl}pyrrolidin-3-yl]oxy}-2H-1,4-benzoxazin-3(4H)-one dihydrochloride salt]",183 °C (dec.),
"CNCCCOc1ccc2c(c1)NC(=O)CO2 [Example 11, 6-[3-(Methylamino)propoxy]-2H-1,4-benzoxazin-3(4H)-one]",,81 nM
"Cc1ccc2c3c(ccc2n1)OC[C@H](CN1CCCC(Cc2ccc4c(c2)NC(=O)CO4)C1)O3 (stereo partly drawn) (as salt: hydrochloride) [Example 16, 6-[(1-{[(2S)-8-Methyl-2,3-dihydro[1,4]dioxino[2,3-f]quinolin-2-yl]methyl}piperidin-3-yl)methyl]-2H-1,4-benzoxazin-3(4H)-one dihydrochloride salt]",200 to 205 °C,
"CNCCCCOc1ccc2c(c1)NC(=O)CO2 (as salt: hydrochloride) [Example 10, 6-[4-(Methylamino)butoxy]-2H-1,4-benzoxazin-3(4H)-one hydrochloride salt]",210 to 212 °C,
"Cc1ccc2c3c(ccc2n1)OC[C@H](CNCCCOc1ccc2c(c1)NC(=O)CO2)O3 (as salt: hydrochloride) [Example 7, 6-[3-({[(2S)-8-Methyl-2,3-dihydro[1,4]dioxino[2,3-f]quinolin-2-yl]methyl}amino)propoxy]-2H-1,4-benzoxazin-3(4H)-one dihydrochloride salt]",184 °C (dec.),
"Cc1ccc2c3c(ccc2n1)OC[C@H](CN1CCC(Cc2ccc4c(c2)N(C)C(=O)CO4)CC1)O3 (as salt: hydrochloride) [Example 12, 4-Methyl-6-[(1-{[(2S)-8-methyl-2,3-dihydro[1,4]dioxino[2,3-f]quinolin-2-yl]methyl}piperidin-4-yl)methyl]-2H-1,4-benzoxazin-3(4H)-one dihydrochloride salt]",205 to 208 °C,

# Second part, led by results:
melting point,Compound,Ki (serotonin transporter)
202 to 205 °C,"Cc1ccc2c3c(ccc2n1)OC[C@H](CN1CCC(CCc2ccc4c(c2)NC(=O)CO4)CC1)O3 (as salt: hydrochloride) [Example 14, 6-[2-(1-{[(2S)-8-Methyl-2,3-dihydro[1,4]dioxino[2,3-f]quinolin-2-yl]methyl}piperidin-4-yl)ethyl]-2H-1,4-benzoxazin-3(4H)-one dihydrochloride salt]",
216 to 219 °C (dec.),"Cc1ccc2c3c(ccc2n1)OC[C@H](CN1CCC(Oc2ccc4c(c2)NC(=O)CO4)CC1)O3 (as salt: hydrochloride) [Example 1, 6-[(1-{[(2S)-8-methyl-2,3-dihydro[1,4]dioxino[2,3-f]quinolin-2-yl]methyl}piperidin-4-yl)oxy]-2H-1,4-benzoxazin-3(4H)-one dihydrochloride salt]",
193 to 194 °C,"CNCCCOc1ccc2c(c1)NC(=O)CO2 (as salt: hydrochloride) [Example 11, 6-[3-(Methylamino)propoxy]-2H-1,4-benzoxazin-3(4H)-one]",
215 °C (dec.),"Cc1ccc2c3c(ccc2n1)OC[C@H](CN1CCC(Cc2ccc4c(c2)NC(=O)CO4)CC1)O3 (as salt: hydrochloride) [Example 2, 6-[(1-{[(2S)-8-Methyl-2,3-dihydro[1,4]dioxino[2,3-f]quinolin-2-yl]methyl}piperidin-4-yl)methyl]-2H-1,4-benzoxazin-3(4H)-one dihydrochloride]",
240 °C (dec.),"Cc1ccc2c3c(ccc2n1)OC[C@H](CNC1CCN(c2ccc4c(c2)NC(=O)CO4)CC1)O3 (as salt: hydrochloride) [Example 18, 6-(4-{[(8-methyl-2,3-dihydro[1,4]dioxino[2,3-f]quinolin-2-yl)methyl]amino}piperidin-1-yl)-2H-1,4-benzoxazin-3(4H)-one dihydrochloride salt]",
183 °C (dec.),"Cc1ccc2c3c(ccc2n1)OC[C@H](CN1CC[C@@H](Oc2ccc4c(c2)NC(=O)CO4)C1)O3 (as salt: hydrochloride) [Example 9, 6-{[(3R)-1-{[(2S)-8-Methyl-2,3-dihydro[1,4]dioxino[2,3-f]quinolin-2-yl]methyl}pyrrolidin-3-yl]oxy}-2H-1,4-benzoxazin-3(4H)-one dihydrochloride salt]",
249 to 251 °C,"Cc1ccc2c3c(ccc2n1)OC[C@H](CN1CCCC(Cc2ccc4c(c2)N(C)C(=O)CO4)C1)O3 (stereo partly drawn) (as salt: hydrochloride) [Example 15, 4-Methyl-6-[(1-{[(2S)-8-methyl-2,3-dihydro[1,4]dioxino[2,3-f]quinolin-2-yl]methyl}piperidin-3-yl)methyl]-2H-1,4-benzoxazin-3(4H)-one dihydrochloride salt]",
164 °C (dec.),"Cc1ccc2c3c(ccc2n1)OC[C@H](CN1CCC(Oc2ccc4c(c2)N(C)C(=O)CO4)CC1)O3 (as salt: hydrochloride) [Example 5, 4-Methyl-6-[(1-{[(2S)-8-methyl-2,3-dihydro[1,4]dioxino[2,3-f]quinolin-2-yl]methyl}piperidin-4-yl)oxy]-2H-1,4-benzoxazin-3(4H)-one dihydrochloride salt]",

# — patent US20090042874A1, “ANTIDEPRESSANT HETEROARYL DERIVATIVES OF HETEROCYCLE-FUSED BENZODIOXANS” (WYETH, priority 2007, published 2009)
